Results as given in patent US20250073680A1, “METHOD OF REGENERATING BIS(IMINOGUANIDINE) CARBON DIOXIDE SORBENTS FROM CARBONATE OR BICARBONATE SALT THEREOF” (UT-Battelle, LLC, priority 2023, published 2025).
“Also recorded” adds a separate entry of the source.

Key:
[1] = total regeneration energy; cited from earlier work
[2] = Stability after steam stripping by NMR and XRD; type: physicochemical; details: 1H-NMR and XRD versus synthesized / conventionally regenerated sample
Experimental: Infrared sensors for CO2 concentration measurements in the inlet and outlet gas streams were used. For gas sample measurements, the exhaust gas passed through a water trap and hydrophobic filter (CM-0118) prior to reaching the sensor to avoid excess water. A total inorganic carbon analyzer containing an acidification module and a CO2 coulometer module was used to determine inorganic carbon content in solid samples. Air at 100 mL/min was used as a carrier gas, and calculations were based on sample weight. A 1 M Na2CO3 solution was used as a standard. Solid samples (40-60 mg) were weighed out into small Teflon cups, and the entire cup was transferred into a 15-mL sample flask. A volume of 5 mL of 2 M HCl acid was dispensed to acidify each sample. Solid samples were analyzed in duplicates. X-ray diffraction (XRD) measurements were conducted using an X-ray diffraction system equipped with a solid-state detector. For the XRD measurements, X-rays were generated at 45 kV/40 mA, and the X-ray beam wavelength was λ=1.5406 A (Cu Kα radiation). Nuclear magnetic resonance (NMR) measurements were performed to quantify solvent degradation after regeneration. The 1D spectra were recorded on a 400 MHz NMR spectrometer equipped with a 5 mm BBI or BBO probe. A residual solvent peak was used as an internal reference (DMSO-d6: 2.50 ppm). […]

[3] = Aqueous solubility of regenerated sorbent; type: physicochemical; details: free base

| Structure (SMILES) | regeneration energy [1] | chemical stability after direct steam regeneration [2] | aqueous solubility [3] |
| --- | --- | --- | --- |
| CC(/C=N/NC(=N)N)=N\NC(=N)N [MGBIG-C, methylglyoxal-bis(iminoguanidine) (MGBIG) carbonate] | 7.0-10.2 kJ/g-CO2 |  |  |
| CC(/C=N/NC(=N)N)=N\NC(=N)N [MGBIG, methylglyoxal-bis(iminoguanidine)] |  | no chemical degradation occurred | completely dissolved in water; also recorded: high aqueous solubility |
| N=C(N)NN=CC=NNC(=N)N [GBIG, glyoxal-bis(iminoguanidine)] |  | no chemical degradation occurred |  |
| N=C(N)N/N=C/C=N/NC(=N)N [GBIG-C, GBIG carbonate] | 3.4 kJ/g-CO2 |  |  |
